In patent EP0402033A1, “Carboxamide derivatives” (OTSUKA PHARMACEUTICAL FACTORY, INC., priority 1989, dated 1990):

Experiments:
[1] = system: plasma high density lipoprotein cholesterol (HDLC); test: Pharmacological Test - 1: increase of plasma HDLC concentration in rats after oral administration; assay type: in vivo, Wistar strain male rats; conditions: Wistar male rats, 300 mg/5 ml/kg/day for 2 days in 0.5%-CMC, blood taken after 20 hours fasting, relative to control group
Experimental: Seven-week-old Wistar strain male rats were used as the test animals. One test group consisting of six (6) rats. A test compound was suspended in a 0.5%-carboxymethyl cellulose (CMC) aqueous solution, thus prepared suspension containing the test compound was orally administered compulsorily by using a sonde to the rat in the amount of 300 mg/5 ml/kg/day for 2 days. Similar to the test group, to each of six (6) rats in the control group was administered with 0.5%-CMC aqueous solution without containing the test compound.
After the final administration was finished, the test rat was fasted for 20 hours, and the blood sample was taken from the rat. The concentration of plasma high density lipoprotein cholesterol (HDLC) was determined by using a measuring instrument of HDL-C kit-N (manufactured by Nihon Shoji Kabushiki Kaisha).
Increasing ratio (%) of plasma HDLC concentration performed by a test compound was calculated from the formula as follows: [formula]

erythrocytes = test: Pharmacological Test - 2 (Hemolysis test) in mice after oral administration; assay type: in vivo, ddY-strain male mice; conditions: ddY male mice, 600 mg/5 ml/kg/day for 10 days, 20 hours fasting, mean of test group divided by mean of control group
Experimental: Seven-week-old ddY-strain male mice were used as test animals. One test group consisting of six (6) mice. A test compound was suspended in a 0.5%-carboxymethyl cellulose (CMC) aqueous solution, thus prepared suspension containing the test compound was orally administered compulsorily by using a sonde to the mouse in the amount of 600 mg/5 ml/kg/day for 10 days. Similar to the above, to each of six mice in the control group was administered with 0.5%-CMC aqueous soluiton without containing the test compound.
After the final administration was finished, the mouse was fasted for 20 hours, then the mouse was subjected to dissection and the blood sample as well as the sample of the spleen were taken by enucleation. The number of the erythrocytes was counted and the weight of the spleen was measured.
The ratio of number of the erythrocytes was calculated by dividing the mean value of number of the erythrocytes obtained from the test group by the mean value of number of the erythrocytes obtained from the control group. Similarly, the ratio of weight of the spleen was calculated by dividing the mean value of weight of the spleen obtained from the test group by the mean value of weight of the spleen obtained from the control group.

SMILES | Increasing ratio (%) of the plasma HDLC concentration [1] [%] | Ratio of number of the erythrocytes (erythrocytes) | Ratio of weight of the spleen (erythrocytes)
CCOP(=O)(Cc1ccc(C(=O)Nc2ccc(Br)cc2C#N)cc1)OCC [Compound of Example 1, 4-diethoxyphosphinoylmethyl-N-(4-bromo-2-cyanophenyl)benzamide] | 193 | 0.96 | 1.13
CCOP(=O)(Cc1ccc(C(=O)Nc2ccc(Cl)cc2C#N)cc1)OCC [Compound of Example 2] | 196 | 0.97 | 1.09
CCOP(=O)(Cc1ccc(C(=O)Nc2ccc(C#N)cc2Cl)cc1)OCC [Compound of Example 3] | 187 |  | 
CCOP(=O)(Cc1ccc(C(=O)Nc2ccc(I)cc2C#N)cc1)OCC [Compound of Example 4] | 187 |  | 
CCOP(=O)(Cc1ccc(C(=O)Nc2ccc(C#N)cc2Br)cc1)OCC [Compound of Example 5] | 222 | 1.07 | 0.94
CCOP(=O)(Cc1ccc(C(=O)Nc2ccc(C#N)cc2I)cc1)OCC [Compound of Example 7] | 184 |  | 
